Assay: Umami effect of pure amide in pure water, panel versus MSG
Type: in vivo
Conditions: amide at 20ppm in mineral water vs 0.05% MSG; RUI=(umami intensity of the amide)/(umami intensity of MSG)*10; average of 5-10 trained panelists
Description: The amides were evaluated at 20ppm in mineral water in comparison with 0.05% monosodium glutamate (MSG). […] The Relative umami intensity (RUI) was calculated as follows: […] The following table gives the average of the notes obtained from all panelists.

SMILES	Relative umami intensity (RUI)
COc1ccc(CCNC(=O)/C=C/c2ccc(OC)c(OC)c2)cc1 [Amide 1, (E)-3-(3,4-dimethoxyphenyl)-N-(4-methoxyphenethyl)acrylamide]	5.6
COc1ccc(/C=C/C(=O)NCCc2ccccc2)cc1OC [Amide 2]	3.8
COc1ccc(/C=C/C(=O)NCCc2ccc(OC)c(OC)c2)cc1OC [Amide 3]	3.3
COc1cccc(CCNC(=O)/C=C/c2ccc(OC)c(OC)c2)c1 [Amide 4, (E)-3-(3,4-dimethoxyphenyl)-N-(3-methoxyphenethyl)acrylamide]	10.2
COc1ccccc1CCNC(=O)/C=C/c1ccc(OC)c(OC)c1 [Amide 5]	3.2
COc1cc(CCNC(=O)/C=C/c2ccc(OC)c(OC)c2)cc(OC)c1 [Amide 6]	3.7
CCOc1cccc(CCNC(=O)/C=C/c2ccc(OC)c(OC)c2)c1 [Amide 7, (E)-3-(3,4-dimethoxyphenyl)-N-(3-ethoxyphenethyl)acrylamide]	9.8
CCCOc1cccc(CCNC(=O)/C=C/c2ccc(OC)c(OC)c2)c1 [Amide 8, (E)-3-(3,4-dimethoxyphenyl)-N-(3-propoxyphenethyl)acrylamide]	9.9
COc1ccc(/C=C/C(=O)NCCc2ccc(OC(C)C)cc2)cc1OC [Amide 9, (E)-3-(3,4-dimethoxyphenyl)-N-(4-isopropoxy-phenethyl)acrylamide]	6.5
CCc1ccc(CCNC(=O)/C=C/c2ccc(OC)c(OC)c2)cc1 [Amide 10, (E)-3-(3,4-dimethoxyphenyl)-N-(4-ethylphenethyl)acrylamide]	11.5
COc1ccc(/C=C/C(=O)NCCc2ccc(C)c(C)c2)cc1OC [Amide 11, (E)-3-(3,4-dimethoxyphenyl)-N-(3,4-dimethylphenethyl)acrylamide]	13.3
COc1ccc(/C=C/C(=O)NCCc2ccc(C(C)C)cc2)cc1OC [Amide 12, (E)-3-(3,4-dimethoxyphenyl)-N-(4-isopropylphenethyl)acrylamide]	5.9
COc1ccc(/C=C/C(=O)NCCc2ccc(OC)c(OC)c2)cc1 [Amide 14]	3.8
COc1ccc(/C=C/C(=O)NCCc2cccc(C)c2)cc1OC [Amide 17, (E)-3-(3,4-dimethoxyphenyl)-N-(3-methylphenethyl)acrylamide]	12.1
